Measured values: the supplement of paper PMC10307832

Assays:
Assay in all cases: relative viability (nuclei count vs DMSO), 5 days (fraction); higher = more cells survive
[1] = compound: CCC1=CN=CN=C1N2CCN(CC2)CC3=NC4=C(N3)C=C(C=C4)C(F)(F)F + CC(=O)Nc1cccc(-n2c(=O)n(C3CC3)c(=O)c3c(Nc4ccc(I)cc4F)n(C)c(=O)c(C)c32)c1 [Trametinib] (partner 0.02 µM)
Procedure, shortened: (§1)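 Each reported value is a median over duplicate plates. It expresses relative viability: treated-well nuclei count divided by vehicle-well nuclei count. Lung cancer cell lines in 1536-well plates were dosed by pin tool a day after seeding, alone with one drug or with a fixed anchor-drug dose plus five library-drug doses (not always all listed) in √10 steps, and nuclei were counted after 5 days.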

Mirin + Decitabine = compound: N=C1NC(=O)/C(=C/c2ccc(O)cc2)S1 [Mirin] + Nc1ncn([C@H]2C[C@H](O)[C@@H](CO)O2)c(=O)n1 [Decitabine] (partner 2 µM)
Procedure, shortened: as §1

[2] = compound: CCC1=CN=CN=C1N2CCN(CC2)CC3=NC4=C(N3)C=C(C=C4)C(F)(F)F + Nc1nc2[nH]cc(CCc3ccc(C(=O)N[C@@H](CCC(=O)O)C(=O)O)cc3)c2c(=O)[nH]1 [Pemetrexed] (partner 0.2 µM)
Procedure, shortened: as §1

Mirin + Alpelisib = compound: N=C1NC(=O)/C(=C/c2ccc(O)cc2)S1 [Mirin] + Cc1nc(NC(=O)N2CCC[C@H]2C(N)=O)sc1-c1ccnc(C(C)(C)C(F)(F)F)c1 [Alpelisib] (partner 2 µM)
Procedure, shortened: as §1

Cell Line | relative viability ([1]; first compound 0.04 µM) | relative viability ([1]; first compound 0.1265 µM) | relative viability ([1]; first compound 0.4 µM) | relative viability ([1]; first compound 1.265 µM) | relative viability ([1]; first compound 4 µM) | relative viability (Mirin + Decitabine; first compound 0.25 µM) | relative viability (Mirin + Decitabine; first compound 0.7906 µM) | relative viability (Mirin + Decitabine; first compound 2.5 µM) | relative viability (Mirin + Decitabine; first compound 7.906 µM) | relative viability (Mirin + Decitabine; first compound 25 µM) | relative viability ([2]; first compound 0.04 µM) | relative viability ([2]; first compound 0.1265 µM) | relative viability ([2]; first compound 0.4 µM) | relative viability ([2]; first compound 1.265 µM) | relative viability ([2]; first compound 4 µM) | relative viability (Mirin + Alpelisib; first compound 0.25 µM) | relative viability (Mirin + Alpelisib; first compound 0.7906 µM) | relative viability (Mirin + Alpelisib; first compound 2.5 µM) | relative viability (Mirin + Alpelisib; first compound 7.906 µM) | relative viability (Mirin + Alpelisib; first compound 25 µM)
NCI-H358 | 0.126 | 0.173 | 0.171 | 0.127 | 0.142 | 0.238 | 0.194 | 0.242 | 0.169 | 0.177 | 0.159 | 0.193 | 0.176 | 0.151 | 0.167 | 0.822 | 0.876 | 0.943 | 0.723 | 0.461
NCI-H1734 | 0.581 | 0.668 | 0.604 | 0.65 | 0.709 | 0.479 | 0.493 | 0.565 | 0.491 | 0.419 | 0.449 | 0.39 | 0.408 | 0.422 | 0.435 | 0.67 | 0.651 | 0.684 | 0.656 | 0.584
EPLC-272H | 0.289 | 0.26 | 0.32 | 0.284 | 0.325 | 0.33 | – | 0.39 | 0.34 | 0.28 | 0.308 | 0.33 | 0.276 | 0.318 | 0.281 | 0.89 | – | 1.02 | 0.779 | 0.815
